“And” between values parts separate entries of the source, which are not always exact repeats. Identical values can stand only once. After the bases stand the sugars from the 5' end (letter, count) and the backbone: PS all phosphorothioate, else s phosphorothioate and o phosphodiester by linkage. Methylation of C is not given here. e = 2'-O-(2-methoxyethyl) (MOE); k = constrained ethyl (cEt); d = 2'-deoxy (DNA)
The sequences below were run against IRF4. Conditions: ASO, MM.1R, 0.0625 µM.

Sequence | target mRNA inhibition
GGAACTCATAGGTGTA (sugars k3 d10 k3, PS) | 11% and 32%
GGCAAATTAATGCTTC (sugars k3 d10 k3, PS) | -5% and 17%

Same assay, conditions: ASO, MM.1R, 0.074 µM

Sequence | target mRNA inhibition [%]
GGCAAATTAATGCTTC (sugars k3 d10 k3, PS) | -9

Same assay, conditions: ASO, MM.1R, 0.222 µM

Sequence | target mRNA inhibition [%]
GGCAAATTAATGCTTC (sugars k3 d10 k3, PS) | -33

Same assay, conditions: ASO, MM.1R, 0.25 µM

Sequence | target mRNA inhibition
GGAACTCATAGGTGTA (sugars k3 d10 k3, PS) | 26% and 42%
GGCAAATTAATGCTTC (sugars k3 d10 k3, PS) | -11% and 5%

Same assay, conditions: ASO, MM.1R, 0.666 µM

Sequence | target mRNA inhibition [%]
GGCAAATTAATGCTTC (sugars k3 d10 k3, PS) | 7

Same assay, conditions: ASO, MM.1R, 1 µM

Sequence | target mRNA inhibition
GGAACTCATAGGTGTA (sugars k3 d10 k3, PS) | 53% and 65%
GGAAGTTTACACTGGA (sugars k2 d9 e3 k2, PS) | 47%
GGAAGTTTACACTGGA (sugars kdddddddddkekeke, PS) | 32%
GGAAGTTTACACTGGA (sugars kkddddddddddkeke, PS) | 46%
GGAGAGGGCGACGACA (sugars k3 d10 k3, PS) | -1%
GGATAACCTGAACATG (sugars k3 d10 k3, PS) | 9%
GGATTCCGCGCGCAGA (sugars k3 d10 k3, PS) | 21%
GGCACATCAATGTTTT (sugars k2 d9 e3 k2, PS) | 22% and 36%
GGCACATCAATGTTTT (sugars kddddddddddkekek, PS) | 28% and 25%
GGCACATCAATGTTTT (sugars kkddddddddddkeke, PS) | 9%
GGCCACCGCACGCAAG (sugars k3 d10 k3, PS) | -24%
GGCCTGAGTTACCGCA (sugars k3 d10 k3, PS) | 8%
GGCGACTGCTGAAAAC (sugars k3 d10 k3, PS) | -10%
GGCGCGGACGCACGGA (sugars k3 d10 k3, PS) | 10%
GGCTCCGCTCAACCAG (sugars k3 d10 k3, PS) | 9%
GGGATTATATACTGGT (sugars kkdddddddddkekek, PS) | 40%
GGGTTAAAGGAGTGCA (sugars k3 d10 k3, PS) | 0%
GGTATTTATAACCGGT (sugars k3 d10 k3, PS) | 10%
GGTATTTTTCCGTTCC (sugars k3 d10 k3, PS) | 30%
GGTTGGCTGGTCTTTG (sugars kddddddddddkekek, PS) | 47%
GGTTGGCTGGTCTTTG (sugars kdddddddddkekeke, PS) | 26%
GGTTGGCTGGTCTTTG (sugars kkdddddddddkdkdk, PS) | 64%
GTAAACGCAAGTCTGA (sugars k3 d10 k3, PS) | 14%
GTAGGTAAGATCTCCA (sugars k3 d10 k3, PS) | 22%
GTAGTATGAGAAACGG (sugars kddddddddddkekek, PS) | 46%
GTAGTATGAGAAACGG (sugars kdddddddddkekeke, PS) | 28%
GTCATTGCTCTTGTTC (sugars k3 d10 k3, PS) | 18%

Same assay, conditions: ASO, MM.1R, 2 µM

Sequence | target mRNA inhibition [%]
GGCAAATTAATGCTTC (sugars k3 d10 k3, PS) | -5

Same assay, conditions: ASO, MM.1R, 4 µM

Sequence | target mRNA inhibition
GGAACTCATAGGTGTA (sugars k3 d10 k3, PS) | 75% and 80%

Same assay, conditions: ASO, SK-MEL-28, 4 µM

Sequence | target mRNA inhibition [%]
GCTCAACCAGTTCCTC (sugars k3 d10 k3, PS) | 38
GCTCACAGATTAATAG (sugars k3 d10 k3, PS) | 16
GCTCACTATTAAACAG (sugars k3 d10 k3, PS) | -12
GCTCACTGCTCACTAA (sugars k3 d10 k3, PS) | 33
GCTCATGCCGAACTCT (sugars k3 d10 k3, PS) | 19
GCTCATGGACATCTGC (sugars k3 d10 k3, PS) | 39
GCTCCTGAGACAGACT (sugars k3 d10 k3, PS) | 56
GCTGCTCATTTCACTG (sugars k3 d10 k3, PS) | 41
GCTGTGTGTCAAAGAG (sugars k4 d8 k4, PS) | 40
GCTTATCAATGCCAAG (sugars k3 d10 k3, PS) | 40
GCTTCTTCAATTTACA (sugars k3 d10 k3, PS) | 45
GCTTTTTCAAACACTA (sugars k3 d10 k3, PS) | 68
GGAAACGAGAACGCAC (sugars k3 d10 k3, PS) | 30
GGAATCTTGGCAGGGA (sugars k3 d10 k3, PS) | 48
GGACATATTTGCTTTG (sugars k3 d10 k3, PS) | 32
GGAGAGGCTGAGATAA (sugars k3 d10 k3, PS) | 29
GGAGATATTAATTACT (sugars k3 d10 k3, PS) | 50
GGAGATCCTTTTTATT (sugars k3 d10 k3, PS) | 32
GGAGGAGGGTTGGCCT (sugars k3 d10 k3, PS) | 1
GGAGTAATAGTAAATA (sugars k3 d10 k3, PS) | 36
GGATGGAACAGTAACT (sugars k3 d10 k3, PS) | 52
GGATTCTATAAATAGA (sugars k3 d10 k3, PS) | 25
GGCAAATTAATGCTTC (sugars k3 d10 k3, PS) | 76
GGCAACCTGCATTTGC (sugars k4 d8 k4, PS) | -12
GGCAAGATGAGAATTC (sugars k3 d10 k3, PS) | 25
GGCAAGTTTTCTCTGT (sugars k3 d10 k3, PS) | 36
GGCACGGCTTCAGTCA (sugars k3 d10 k3, PS) | 75

Sequence | target mRNA inhibition [%]
GGCCAACGACTCCACA (sugars k3 d10 k3, PS) | 23
GGCCAATGATTTTGTT (sugars k3 d10 k3, PS) | 6
GGCCATCCAGAGGACC (sugars k3 d10 k3, PS) | 25
GGCCCCAGCCAAGAAG (sugars k3 d10 k3, PS) | 8
GGCCGATCATCAACTT (sugars k3 d10 k3, PS) | 7
GGCCTTCCTGGCGGAG (sugars k3 d10 k3, PS) | 22
GGCGACCCCGTCGCAG (sugars k3 d10 k3, PS) | 30
GGCGACTAACTCTCCT (sugars k3 d10 k3, PS) | 63
GGCTAGGCCACCGCAC (sugars k3 d10 k3, PS) | 28
GGCTGAGATAGGAAGC (sugars k3 d10 k3, PS) | 36
GGGAACAGATAGTTAA (sugars k3 d10 k3, PS) | 26
GGGAAGTGGACCCCAT (sugars k3 d10 k3, PS) | 9
GGGACCCACGGACGGA (sugars k3 d10 k3, PS) | 9
GGGAGATCCGGCAGCC (sugars k3 d10 k3, PS) | -10
GGGCAACAGTTCAAGT (sugars k3 d10 k3, PS) | 36
GGGCAAGATGAGAATT (sugars k3 d10 k3, PS) | 0
GGGCAATGGAGTCTCG (sugars k3 d10 k3, PS) | 24
GGGCAGTCAATTGGAC (sugars k3 d10 k3, PS) | 25
GGGCATCCTCAGTTAC (sugars k3 d10 k3, PS) | 33
GGGCATGTAAAACATA (sugars k3 d10 k3, PS) | 23
GGGCCCGTCCCAGTAG (sugars k3 d10 k3, PS) | 20
GGGCGACGACAGCTGC (sugars k3 d10 k3, PS) | 32
GGGTAAAGGAGTGCAG (sugars k3 d10 k3, PS) | 19
GGGTCCTACCTGCTGG (sugars k3 d10 k3, PS) | 36
GGGTTAAAGATGTTAC (sugars k3 d10 k3, PS) | 50
GGGTTACGCTTATTTT (sugars k3 d10 k3, PS) | 65
GGTAATTTAGGCCAAT (sugars k3 d10 k3, PS) | 35

Sequence | target mRNA inhibition [%]
GGTACATGGCAGTGGA (sugars k3 d10 k3, PS) | 87
GGTATACTTAAGCAAG (sugars k3 d10 k3, PS) | 68
GGTGAGCACCGCGCCG (sugars k3 d10 k3, PS) | -8
GGTGTAACTTTTACCT (sugars k3 d10 k3, PS) | 11
GGTTAAATATTCTTCA (sugars k3 d10 k3, PS) | 48
GGTTACTAATTCCATA (sugars k3 d10 k3, PS) | 56
GTAAACACATCACTTG (sugars k3 d10 k3, PS) | 51
GTAAACTTGGCTGTGG (sugars k3 d10 k3, PS) | 18
GTAAATATCCTGTAGT (sugars k3 d10 k3, PS) | 33
GTAACTAACTCAAAAG (sugars k3 d10 k3, PS) | -1
GTAATGTAGGGATACA (sugars k3 d10 k3, PS) | 48
GTACACAAGACAAATC (sugars k3 d10 k3, PS) | 21
GTACACCTCTTCACTA (sugars k3 d10 k3, PS) | 7
GTACATCCTGAAGCCA (sugars k3 d10 k3, PS) | 26
GTAGATCCTGCTCTGG (sugars k3 d10 k3, PS) | 45
GTAGTCCTGCTTGCCC (sugars k3 d10 k3, PS) | 44
GTAGTCCTGCTTGCCC (sugars k4 d8 k4, PS) | 11
GTATACCAACGACAGC (sugars k3 d10 k3, PS) | 78
GTATACTTAAGCAAGT (sugars k3 d10 k3, PS) | 42
GTATAGTTCTCAACCA (sugars k3 d10 k3, PS) | 47
GTATTTCATAGCTAGT (sugars k3 d10 k3, PS) | 69
GTCAAAAAGATGCAGA (sugars k3 d10 k3, PS) | 50
GTCAATACTGAAAGGC (sugars k3 d10 k3, PS) | 66
GTCACCTGGCAACCAT (sugars k3 d10 k3, PS) | 41
GTCACTTACACCCAGA (sugars k3 d10 k3, PS) | 52
GTCAGCTCCATCCTGC (sugars k3 d10 k3, PS) | 52

Reference: the OligoGym collection
